PubChem BioAssay (NCI)
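Grown in 96-well plates, cells were treated for 48 hours with each compound at five concentrations. Insufficient inhibition: endpoint recorded as highest concentration tested. At the GI50, growth is halved. Definition used: TGI = concentration required for complete inhibition of growth.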

Key:
Assay in all cases: growth of human tumour cells (NCI), 48 h
[1] = test system: MALME-3M melanoma
[2] = test system: CAKI-1 renal
[3] = test system: SN12C renal
[4] = test system: OVCAR-3 ovarian
[5] = test system: SK-MEL-28 melanoma
[6] = test system: SR leukemia
[7] = test system: HOP-62 NSCLC
[8] = test system: MCF7 breast
[9] = test system: A549 NSCLC
[10] = test system: OVCAR-4 ovarian
[11] = test system: IGROV1 ovarian
[12] = test system: SK-MEL-2 melanoma
[13] = test system: DU-145 prostate
[14] = test system: RPMI-8226 leukemia
[15] = test system: MDA-MB-231 breast
[16] = test system: SW-620 colon
[17] = test system: HCT-15 colon
[18] = test system: ACHN renal
[19] = test system: SF-539 CNS
[20] = test system: NCI-H460 lung
[21] = test system: U251 CNS
[22] = test system: KM12 colon
[23] = test system: HOP-92 NSCLC
[24] = test system: TK-10 renal
[25] = test system: OVCAR-5 ovarian
[26] = test system: HL-60(TB) leukemia
[27] = test system: HT29 colon
[28] = test system: EKVX NSCLC
[29] = test system: UO-31 renal
[30] = test system: M14 melanoma
[31] = test system: HCT-116 colon
[32] = test system: SK-MEL-5 melanoma
[33] = test system: SF-268 CNS
[34] = test system: LOX IMVI melanoma
[35] = test system: MDA-MB-435
[36] = test system: PC-3 prostate
[37] = test system: SK-OV-3 ovarian
[38] = test system: OVCAR-8 ovarian
[39] = test system: CCRF-CEM leukemia
[40] = test system: K-562 leukemia
[41] = test system: NCI/ADR-RES ovarian
[42] = test system: COLO 205 colon
[43] = test system: UACC-62 melanoma
[44] = test system: HCC-2998 colon
[45] = test system: NCI-H522 lung
[46] = test system: HS 578T breast
[47] = test system: 786-0 renal
[48] = test system: SNB-19 CNS
[49] = test system: A498 renal
[50] = test system: NCI-H23 lung
[51] = test system: UACC-257 melanoma
[52] = test system: BT-549 breast
[53] = test system: T-47D breast

COc1ccc(NC(=O)c2cccc(C3CCc4c(cc(OC)c(OC)c4OC)O3)c2)cc1 (stereo unspecified)
GI50 [1]: 2.69 µM
TGI [1]: > 100 µM
GI50 [2]: 3.49 µM
TGI [2]: > 100 µM
GI50 [3]: 3.7 µM
TGI [3]: > 100 µM
GI50 [4]: 3.54 µM
TGI [4]: > 100 µM
GI50 [5]: 4.12 µM
TGI [5]: > 100 µM
GI50 [6]: 0.419 µM
TGI [6]: > 100 µM
GI50 [7]: 2.86 µM
TGI [7]: > 100 µM
GI50 [8]: 3.11 µM
TGI [8]: > 100 µM
GI50 [9]: 3.57 µM
TGI [9]: > 100 µM
GI50 [10]: 3.14 µM
TGI [10]: > 100 µM
GI50 [11]: 4.96 µM
TGI [11]: > 100 µM
GI50 [12]: 2.95 µM
TGI [12]: 8.79 µM
GI50 [13]: 2.93 µM
TGI [13]: > 100 µM
GI50 [14]: 1.36 µM
TGI [14]: 7.93 µM
GI50 [15]: 4.13 µM
TGI [15]: > 100 µM
GI50 [16]: 4.45 µM
TGI [16]: > 100 µM
GI50 [17]: 1.96 µM
TGI [17]: > 100 µM
GI50 [18]: 4.28 µM
TGI [18]: > 100 µM
GI50 [19]: 2.52 µM
TGI [19]: 7.01 µM
GI50 [20]: 3.33 µM
TGI [20]: > 100 µM
GI50 [21]: 3.4 µM
TGI [21]: > 100 µM
GI50 [22]: 3.49 µM
TGI [22]: > 100 µM
GI50 [23]: 0.29 µM
TGI [23]: 3.49 µM
GI50 [24]: 3.75 µM
TGI [24]: > 100 µM
GI50 [25]: 6.46 µM
TGI [25]: > 100 µM
GI50 [26]: 1.25 µM
TGI [26]: > 100 µM
GI50 [27]: 3.17 µM
TGI [27]: > 100 µM
GI50 [28]: 3.28 µM
TGI [28]: > 100 µM
GI50 [29]: 2.36 µM
TGI [29]: > 100 µM
GI50 [30]: 2.6 µM
TGI [30]: > 100 µM
GI50 [31]: 3.65 µM
TGI [31]: > 100 µM
GI50 [32]: 1.67 µM
TGI [32]: 3.89 µM
GI50 [33]: 5.13 µM
TGI [33]: > 100 µM
GI50 [34]: 3.94 µM
TGI [34]: > 100 µM
GI50 [35]: 0.528 µM
TGI [35]: 9.92 µM
GI50 [36]: 1.57 µM
TGI [36]: > 100 µM
GI50 [37]: 3.54 µM
TGI [37]: > 100 µM
GI50 [38]: 3.1 µM
TGI [38]: > 100 µM
GI50 [39]: 1.6 µM
TGI [39]: > 100 µM
GI50 [40]: 0.654 µM
TGI [40]: > 100 µM
GI50 [41]: 2.81 µM
TGI [41]: > 100 µM
GI50 [42]: 2.39 µM
TGI [42]: 6.67 µM
GI50 [43]: 2.05 µM
TGI [43]: > 100 µM
GI50 [44]: 6.01 µM
TGI [44]: > 100 µM
GI50 [45]: 2.29 µM
TGI [45]: 7.37 µM
GI50 [46]: 2.69 µM
TGI [46]: > 100 µM
GI50 [47]: 4.18 µM
TGI [47]: > 100 µM
GI50 [48]: 4.16 µM
TGI [48]: > 100 µM
GI50 [49]: 1.37 µM
TGI [49]: 5.7 µM
GI50 [50]: 4.56 µM
TGI [50]: > 100 µM
GI50 [51]: 3.72 µM
TGI [51]: > 100 µM
GI50 [52]: 2.83 µM
TGI [52]: > 100 µM
GI50 [53]: 2.49 µM
TGI [53]: 7.48 µM
